Data reported in publication PMC9005681, “Use of AD Informer Set compounds to explore validity of novel targets in Alzheimer's disease pathology” (Alzheimer's & Dementia : Translational Research & Clinical …, 2022).

How the values were obtained:
Assay in all cases: PDSP GPCR panel primary binding assays at 10 μM
[1] = target: T1, cloned human or rodent CNS receptors, channels, and transporters (PDSP panel) (Homo sapiens, UniProt P20309); conditions: M3, primary assay; for Mean %: mean inhibition; for Inhibition 1: replicate 1; for Inhibition 2: replicate 2; for Inhibition 3: replicate 3; for Inhibition 4: replicate 4
T1 construct: expressed in transfected cells
T1 sequence (P20309 whole entry): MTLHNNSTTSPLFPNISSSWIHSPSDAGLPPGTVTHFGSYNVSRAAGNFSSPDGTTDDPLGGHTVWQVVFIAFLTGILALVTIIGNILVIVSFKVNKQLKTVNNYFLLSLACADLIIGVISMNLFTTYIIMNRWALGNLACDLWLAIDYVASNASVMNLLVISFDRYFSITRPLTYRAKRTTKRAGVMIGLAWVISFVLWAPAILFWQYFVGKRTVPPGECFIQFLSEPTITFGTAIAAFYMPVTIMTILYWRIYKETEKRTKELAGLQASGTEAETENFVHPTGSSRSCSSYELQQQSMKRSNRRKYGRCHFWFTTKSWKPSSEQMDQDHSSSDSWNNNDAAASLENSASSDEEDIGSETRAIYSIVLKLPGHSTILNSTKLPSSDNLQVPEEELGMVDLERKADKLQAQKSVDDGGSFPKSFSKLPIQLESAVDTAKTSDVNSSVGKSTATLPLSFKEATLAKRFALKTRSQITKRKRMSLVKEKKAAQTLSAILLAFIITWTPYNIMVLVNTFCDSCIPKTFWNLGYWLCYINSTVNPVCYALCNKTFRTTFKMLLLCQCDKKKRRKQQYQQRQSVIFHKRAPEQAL
Procedure, shortened: (§1)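 Radioligand displacement at cloned human or rodent CNS targets: 46–47 primary binding assays run in quadruplicate at 10 μM. Targets where the compound displaced an average of >50% of radiolabeled standard ligand went to secondary binding in 11-point dose-response, in triplicate; none run for H3, PBR or GABAA.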

[2] = target: T2, cloned human or rodent CNS receptors, channels, and transporters (PDSP panel) (Homo sapiens, UniProt P35372); conditions: MOR, primary assay; for Mean %: mean inhibition; for Inhibition 1: replicate 1; for Inhibition 2: replicate 2; for Inhibition 3: replicate 3; for Inhibition 4: replicate 4
T2 construct: expressed in transfected cells
T2 sequence (P35372 whole entry): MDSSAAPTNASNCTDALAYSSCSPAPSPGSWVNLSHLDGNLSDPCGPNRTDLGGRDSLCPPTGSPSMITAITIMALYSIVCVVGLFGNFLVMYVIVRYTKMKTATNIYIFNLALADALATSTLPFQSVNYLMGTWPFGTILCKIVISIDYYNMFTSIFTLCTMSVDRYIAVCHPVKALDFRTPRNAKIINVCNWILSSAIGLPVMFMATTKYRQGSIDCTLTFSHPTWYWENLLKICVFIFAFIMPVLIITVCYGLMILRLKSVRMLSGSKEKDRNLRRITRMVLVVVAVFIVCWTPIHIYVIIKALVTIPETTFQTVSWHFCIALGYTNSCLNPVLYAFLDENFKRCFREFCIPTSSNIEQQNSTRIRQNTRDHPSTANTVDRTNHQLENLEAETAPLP
Procedure, shortened: as §1

[3] = target: T3, cloned human or rodent CNS receptors, channels, and transporters (PDSP panel) (Homo sapiens, UniProt Q01959); conditions: DAT, primary assay; for Mean %: mean inhibition; for Inhibition 1: replicate 1; for Inhibition 2: replicate 2; for Inhibition 3: replicate 3; for Inhibition 4: replicate 4
T3 construct: expressed in transfected cells
T3 sequence (Q01959 whole entry): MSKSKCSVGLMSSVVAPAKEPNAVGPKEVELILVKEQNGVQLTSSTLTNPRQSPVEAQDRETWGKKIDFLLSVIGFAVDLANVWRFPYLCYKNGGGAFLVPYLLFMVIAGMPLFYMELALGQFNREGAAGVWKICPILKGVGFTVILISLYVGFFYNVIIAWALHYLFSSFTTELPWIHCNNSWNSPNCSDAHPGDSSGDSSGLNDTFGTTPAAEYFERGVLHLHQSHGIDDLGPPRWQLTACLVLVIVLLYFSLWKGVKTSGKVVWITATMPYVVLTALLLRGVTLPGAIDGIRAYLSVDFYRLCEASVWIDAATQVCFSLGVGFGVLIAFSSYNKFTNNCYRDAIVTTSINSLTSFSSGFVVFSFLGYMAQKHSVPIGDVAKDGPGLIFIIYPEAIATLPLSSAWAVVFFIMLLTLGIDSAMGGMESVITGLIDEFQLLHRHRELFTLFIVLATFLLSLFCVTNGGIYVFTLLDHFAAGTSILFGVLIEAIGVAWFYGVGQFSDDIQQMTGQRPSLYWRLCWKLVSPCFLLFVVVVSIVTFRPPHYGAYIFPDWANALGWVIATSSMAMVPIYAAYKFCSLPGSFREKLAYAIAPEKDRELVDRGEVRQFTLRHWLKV
Procedure, shortened: as §1

[4] = target: T4, cloned human or rodent CNS receptors, channels, and transporters (PDSP panel) (Homo sapiens, UniProt P25021); conditions: H2, primary assay; for Mean %: mean inhibition; for Inhibition 1: replicate 1; for Inhibition 2: replicate 2; for Inhibition 3: replicate 3; for Inhibition 4: replicate 4
T4 construct: expressed in transfected cells
T4 sequence (P25021 whole entry): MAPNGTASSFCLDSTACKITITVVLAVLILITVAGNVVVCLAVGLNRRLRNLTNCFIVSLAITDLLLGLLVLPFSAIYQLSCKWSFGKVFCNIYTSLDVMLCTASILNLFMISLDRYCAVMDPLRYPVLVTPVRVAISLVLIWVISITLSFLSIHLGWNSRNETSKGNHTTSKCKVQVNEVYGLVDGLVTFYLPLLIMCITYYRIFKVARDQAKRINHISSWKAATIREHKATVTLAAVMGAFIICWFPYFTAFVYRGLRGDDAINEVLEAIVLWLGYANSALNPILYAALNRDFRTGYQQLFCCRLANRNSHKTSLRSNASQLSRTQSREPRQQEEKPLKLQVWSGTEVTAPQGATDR
Procedure, shortened: as §1

[5] = target: T5, cloned human or rodent CNS receptors, channels, and transporters (PDSP panel) (Homo sapiens, UniProt P28566); conditions: 5-HT1E, primary assay; for Mean %: mean inhibition; for Inhibition 1: replicate 1; for Inhibition 2: replicate 2; for Inhibition 3: replicate 3; for Inhibition 4: replicate 4
T5 construct: expressed in transfected cells
T5 sequence (P28566 whole entry): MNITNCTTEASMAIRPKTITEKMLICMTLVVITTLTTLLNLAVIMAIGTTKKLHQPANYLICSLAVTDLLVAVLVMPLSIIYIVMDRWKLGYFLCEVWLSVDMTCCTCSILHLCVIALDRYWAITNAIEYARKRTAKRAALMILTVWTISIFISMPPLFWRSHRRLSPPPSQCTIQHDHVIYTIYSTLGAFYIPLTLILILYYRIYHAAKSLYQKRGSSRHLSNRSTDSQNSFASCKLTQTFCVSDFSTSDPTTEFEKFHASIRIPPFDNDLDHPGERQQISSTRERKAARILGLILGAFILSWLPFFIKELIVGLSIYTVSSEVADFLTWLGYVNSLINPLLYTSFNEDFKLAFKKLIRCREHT
Procedure, shortened: as §1

[6] = target: T6, cloned human or rodent CNS receptors, channels, and transporters (PDSP panel) (Homo sapiens, UniProt P25100); conditions: Alpha1D, primary assay; for Mean %: mean inhibition; for Inhibition 1: replicate 1; for Inhibition 2: replicate 2; for Inhibition 3: replicate 3; for Inhibition 4: replicate 4
T6 construct: expressed in transfected cells
T6 sequence (P25100 1-572): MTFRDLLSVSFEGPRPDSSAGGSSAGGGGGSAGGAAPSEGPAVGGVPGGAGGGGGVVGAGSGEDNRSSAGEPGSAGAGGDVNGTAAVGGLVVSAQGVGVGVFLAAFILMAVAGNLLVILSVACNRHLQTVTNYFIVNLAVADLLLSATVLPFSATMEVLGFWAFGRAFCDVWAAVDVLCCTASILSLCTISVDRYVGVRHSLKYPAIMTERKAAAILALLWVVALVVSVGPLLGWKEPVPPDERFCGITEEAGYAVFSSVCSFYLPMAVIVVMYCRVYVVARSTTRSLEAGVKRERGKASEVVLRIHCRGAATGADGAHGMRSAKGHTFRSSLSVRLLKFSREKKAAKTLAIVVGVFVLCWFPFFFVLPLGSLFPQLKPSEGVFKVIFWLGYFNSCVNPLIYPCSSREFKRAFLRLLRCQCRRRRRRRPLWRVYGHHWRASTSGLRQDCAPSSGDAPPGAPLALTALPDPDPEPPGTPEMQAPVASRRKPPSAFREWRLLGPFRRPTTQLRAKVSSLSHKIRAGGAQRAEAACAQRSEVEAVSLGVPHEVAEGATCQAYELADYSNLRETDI
Procedure, shortened: as §1

[7] = target: T7, cloned human or rodent CNS receptors, channels, and transporters (PDSP panel) (Homo sapiens, UniProt P08172); conditions: M2, primary assay; for Mean %: mean inhibition; for Inhibition 1: replicate 1; for Inhibition 2: replicate 2; for Inhibition 3: replicate 3; for Inhibition 4: replicate 4
T7 construct: expressed in transfected cells
T7 sequence (P08172 1-466): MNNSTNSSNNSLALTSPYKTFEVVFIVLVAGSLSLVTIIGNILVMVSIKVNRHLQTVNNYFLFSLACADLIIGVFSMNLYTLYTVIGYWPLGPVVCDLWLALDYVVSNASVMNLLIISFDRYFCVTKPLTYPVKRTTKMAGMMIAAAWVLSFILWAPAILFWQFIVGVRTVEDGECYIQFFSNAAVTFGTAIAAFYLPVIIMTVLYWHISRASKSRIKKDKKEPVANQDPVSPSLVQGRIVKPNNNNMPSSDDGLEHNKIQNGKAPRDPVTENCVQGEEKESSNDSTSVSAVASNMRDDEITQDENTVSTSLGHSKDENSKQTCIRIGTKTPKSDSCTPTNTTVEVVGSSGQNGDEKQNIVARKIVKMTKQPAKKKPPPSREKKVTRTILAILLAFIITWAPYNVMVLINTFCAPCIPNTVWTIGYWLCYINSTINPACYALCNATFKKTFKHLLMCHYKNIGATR
Procedure, shortened: as §1

[8] = target: T8, cloned human or rodent CNS receptors, channels, and transporters (PDSP panel) (Homo sapiens, UniProt P18089); conditions: Alpha2B, primary assay; for Mean %: mean inhibition; for Inhibition 1: replicate 1; for Inhibition 2: replicate 2; for Inhibition 3: replicate 3; for Inhibition 4: replicate 4
T8 construct: expressed in transfected cells
T8 sequence (P18089 1-450): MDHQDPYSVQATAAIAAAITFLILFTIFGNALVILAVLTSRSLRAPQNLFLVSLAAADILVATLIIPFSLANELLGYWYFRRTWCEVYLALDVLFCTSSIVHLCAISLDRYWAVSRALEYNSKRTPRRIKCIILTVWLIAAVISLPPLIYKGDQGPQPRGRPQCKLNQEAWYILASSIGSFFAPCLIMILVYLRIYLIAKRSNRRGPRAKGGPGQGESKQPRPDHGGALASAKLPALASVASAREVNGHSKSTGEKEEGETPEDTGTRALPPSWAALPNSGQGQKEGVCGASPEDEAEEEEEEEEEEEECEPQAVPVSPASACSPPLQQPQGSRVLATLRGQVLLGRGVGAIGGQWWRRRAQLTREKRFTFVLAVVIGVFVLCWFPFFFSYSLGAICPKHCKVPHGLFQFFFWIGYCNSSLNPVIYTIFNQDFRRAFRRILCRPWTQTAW
Procedure, shortened: as §1

Compound | Mean % [1] [%] | Inhibition 1 [1] [%] | Inhibition 2 [1] [%] | Inhibition 3 [1] [%] | Inhibition 4 [1] [%] | Mean % [2] [%] | Inhibition 1 [2] [%] | Inhibition 2 [2] [%] | Inhibition 3 [2] [%] | Inhibition 4 [2] [%] | Mean % [3] [%] | Inhibition 1 [3] [%] | Inhibition 2 [3] [%] | Inhibition 3 [3] [%] | Inhibition 4 [3] [%] | Mean % [4] [%] | Inhibition 1 [4] [%] | Inhibition 2 [4] [%] | Inhibition 3 [4] [%] | Inhibition 4 [4] [%] | further results
MDL 28170 [UNC10302675A] | 3.62 | 10.69 | 6.89 | 8.89 | -11.99 | -2.22 | 0.73 | -3.1 | -4.83 | -1.67 | 35.54 | 41.81 | 27.44 | 32.41 | 40.51 | -17.24 | -6.35 | -24.37 | -15.47 | -22.78 | Mean % [5]: -6.22%; Inhibition 1 [5]: -3.13%; Inhibition 2 [5]: -5.37%; Inhibition 3 [5]: -7.3%; Inhibition 4 [5]: -9.09%; Mean % [6]: 0.92%; Inhibition 1 [6]: 9.77%; Inhibition 2 [6]: 7.35%; Inhibition 3 [6]: -4.01%; Inhibition 4 [6]: -9.41%; Mean % [7]: 1.32%; Inhibition 1 [7]: -8.82%; Inhibition 2 [7]: -11.77%; Inhibition 3 [7]: 0.03%; Inhibition 4 [7]: 25.84%; Mean % [8]: 5.87%; Inhibition 1 [8]: 22.44%; Inhibition 2 [8]: -15.29%; Inhibition 3 [8]: -0.28%; Inhibition 4 [8]: 16.62%
O=C(NC1CC1)C(=O)C(Cc1ccccc1)NC(=O)[C@H]1CCC(=O)N1Cc1ccccc1 (some centres unmarked) [UNC10302676A, ABT-957 (Alicapistat)] | -7.1 | 3.98 | -16.69 | -10.47 | -5.21 | 7.04 | 10.32 | 13.58 | -4.06 | 8.3 | 30.14 | 25.06 | 27.22 | 40.62 | 27.66 | 2.47 | -6.09 | 2.81 | -1.92 | 15.07 | Mean % [5]: -4.73%; Inhibition 1 [5]: 3.28%; Inhibition 2 [5]: -0.45%; Inhibition 3 [5]: -9.69%; Inhibition 4 [5]: -12.07%; Mean % [6]: -2.1%; Inhibition 1 [6]: 4.8%; Inhibition 2 [6]: -9.7%; Inhibition 3 [6]: -4.72%; Inhibition 4 [6]: 1.24%; Mean % [7]: 2.92%; Inhibition 1 [7]: 7.16%; Inhibition 2 [7]: -5.38%; Inhibition 3 [7]: 7.65%; Inhibition 4 [7]: 2.24%; Mean % [8]: 8.48%; Inhibition 1 [8]: 16.01%; Inhibition 2 [8]: 17.34%; Inhibition 3 [8]: -9.53%; Inhibition 4 [8]: 10.08%
